Test results published in PMC10708259 (Molecules, 2023).
Counter-ions that a name gives are not always drawn.

Experiments:
[1] = molecular target: T1, human μ-opioid receptor (OPRM1) (Homo sapiens, UniProt P35372); assay: cell-based; format: cell-based; conditions: for EC50: MOR Agonist EC50 ± SEM
T1 construct: host or cells: cAMP Hunter CHO-K1

[2] = molecular target: T2, human δ-opioid receptor (OPRD1) (Homo sapiens, UniProt P41143); assay: Forskolin-induced cAMP accumulation assay, DOR agonist mode
T2 sequence (P41143 whole entry): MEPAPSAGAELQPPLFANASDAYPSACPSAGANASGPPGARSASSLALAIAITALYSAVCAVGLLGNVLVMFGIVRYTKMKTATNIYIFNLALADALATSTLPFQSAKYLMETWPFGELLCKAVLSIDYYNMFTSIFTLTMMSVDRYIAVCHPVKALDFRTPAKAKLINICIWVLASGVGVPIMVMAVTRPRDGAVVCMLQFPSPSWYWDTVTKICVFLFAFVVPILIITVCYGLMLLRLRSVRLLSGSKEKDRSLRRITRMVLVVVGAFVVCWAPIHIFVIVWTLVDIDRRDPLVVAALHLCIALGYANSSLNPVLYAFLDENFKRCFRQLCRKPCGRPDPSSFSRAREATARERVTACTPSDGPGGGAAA

[3] = molecular target: T3, human κ-opioid receptor (OPRK1) (Homo sapiens, UniProt P41145); assay: Forskolin-induced cAMP accumulation assay, KOR agonist mode
T3 sequence (P41145 whole entry): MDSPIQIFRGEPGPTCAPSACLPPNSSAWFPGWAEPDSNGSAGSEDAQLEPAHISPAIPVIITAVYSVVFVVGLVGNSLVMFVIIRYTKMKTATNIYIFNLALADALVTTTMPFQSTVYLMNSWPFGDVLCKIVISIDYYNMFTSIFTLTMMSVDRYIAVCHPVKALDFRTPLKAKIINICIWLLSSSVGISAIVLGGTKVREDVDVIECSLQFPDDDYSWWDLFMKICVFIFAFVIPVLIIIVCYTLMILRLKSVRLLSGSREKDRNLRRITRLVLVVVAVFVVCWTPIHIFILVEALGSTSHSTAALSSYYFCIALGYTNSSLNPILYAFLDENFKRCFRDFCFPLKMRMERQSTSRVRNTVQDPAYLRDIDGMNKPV

[4] = molecular target: T2, human δ-opioid receptor (OPRD1); assay: Forskolin-induced cAMP accumulation assay, DOR antagonist mode
[5] = molecular target: T3, human κ-opioid receptor (OPRK1); assay: Forskolin-induced cAMP accumulation assay, KOR antagonist mode

T1 sequence (P35372 whole entry): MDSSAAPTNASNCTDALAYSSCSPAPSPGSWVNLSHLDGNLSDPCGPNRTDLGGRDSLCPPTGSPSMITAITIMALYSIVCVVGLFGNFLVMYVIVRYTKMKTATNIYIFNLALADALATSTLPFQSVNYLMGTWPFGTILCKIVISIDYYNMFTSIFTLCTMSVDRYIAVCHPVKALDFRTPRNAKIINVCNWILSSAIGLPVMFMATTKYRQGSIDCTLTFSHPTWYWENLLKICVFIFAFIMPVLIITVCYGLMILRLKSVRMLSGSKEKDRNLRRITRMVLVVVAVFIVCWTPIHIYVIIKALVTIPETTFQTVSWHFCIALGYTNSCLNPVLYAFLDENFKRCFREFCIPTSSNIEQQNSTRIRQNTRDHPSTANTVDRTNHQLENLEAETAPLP

SMILES	MOR agonist potency / efficacy in words [1]	EC50 [1]	EC50 [2]	EC50 [3]	Emax ([3]; CHO-K1, read-out: KOR Agonist %Emax ± SEM)	IC50 [4]	IC50 [5]	melting point	Emax ([1]; read-out: MOR Agonist %Emax ± SEM)	Emax ([2]; CHO-K1, read-out: DOR Agonist %Emax ± SEM)	KOR Antagonist %Imax ± SEM ([5]; versus EC90 of U50488H, Imax normalized to nor-BNI)
C[C@H]1[C@H]2Cc3ccc(O)cc3[C@]1(C)CCN2CCC1CCN(C)CC1 [Compound 28, (1R,5R,9R)-6,11-Dimethyl-3-(2-(1-methylpiperidin-4-yl)ethyl)-1,2,3,4,5,6-hexahydro-2,6-methanobenzo[d]azocin-8-ol]	little or no potency	> 10000 nM	> 10000 nM	0.05 ± 0.02 nM	15%	> 10000 nM	> 10000 nM				
CC1C2Cc3ccc(O)cc3C1(C)CCN2CCc1ccc([N+](=O)[O-])cc1 (as salt: HCl) [Compound 3, (1R,5R,9R)-6,11-Dimethyl-3-(4-nitrophenethyl)-1,2,3,4,5,6-hexahydro-2,6-methanobenzo[d]azocin-8-ol]								273 to 274 °C (dec.)			
CC1C2Cc3ccc(O)cc3C1(C)CCN2CCc1cccc(Cl)c1 [Compound 16, (1R,5R,9R)-6,11-Dimethyl-3-(3-chlorophenethyl)-1,2,3,4,5,6-hexahydro-2,6-methanobenzo[d]azocin-8-ol]		13 nM	93 ± 25 nM	> 10000 nM			111 ± 43 nM		95%	64%	108 ± 10%
